This data set can be described thus: Determination of the protein binding (90% serum, 30 kDa filter, HPLC). It is filed as in vitro ADME. Conditions: serum. As for the experimental part: Protein binding assays were performed as follows. The purified peptides were mixed with 90% serum and centrifuged through a 30 kDa filter. The ultra-filtrate and the non filtrated serum samples were quantified by HPLC measurements and the protein binding was subsequently calculated.

Where a SMILES comes first, the peptide text is derived from it. Bridges are numbered along the chain shown (N, C = ends).

Turning to `CC(C)[C@@H]1NC(=O)CNC(=O)[C@H](CC(N)=O)NC(=O)[C@H](CCCNC(=N)N)NC(=O)[C@H](Cc2ccc(O)cc2)NC(=O)[C@H](CO)NC(=O)[C@@H]2CSSC[C@H](NC(=O)[C@H](CCCCN)NC(=O)[C@H](CCCNC(=N)N)NC1=O)C(=O)N[C@@H](Cc1ccc(O)cc1)C(=O)N[C@@H](CCCNC(=N)N)C(=O)N[C@@H](CCCNC(=N)N)C(=O)N[C@H](C(=O)N[C@@H](CC(N)=O)C(=O)O)CSSC[C@H](NC(=O)[C@H](Cc1ccccc1)NC(=O)CN)C(=O)N[C@@H](Cc1c[nH]c3ccccc13)C(=O)N[C@@H](CCCNC(=N)N)C(=O)N[C@@H](C(C)C)C(=O)N2` [compound 331] (H-GFCWRVCSYRNGVRKCYRRCN-OH; disulfide 3-20, 7-16 (inferred); N-terminus and C-terminus assumed), the fraction unbound is 0.05.
Next, `CC(C)[C@@H]1NC(=O)CNC(=O)[C@H](CC(N)=O)NC(=O)[C@H](CCCNC(=N)N)NC(=O)[C@H](CCCNC(=N)N)NC(=O)[C@H](C(C)C)NC(=O)[C@@H]2CSSC[C@H](NC(=O)[C@H](C(C)C)NC(=O)[C@H](CCCNC(=N)N)NC1=O)C(=O)N[C@@H](Cc1ccc(O)cc1)C(=O)N[C@@H](CCCNC(=N)N)C(=O)N[C@@H](CCCNC(=N)N)C(=O)N[C@H](C(=O)N[C@@H](CC(N)=O)C(=O)O)CSSC[C@H](NC(=O)[C@H](Cc1ccccc1)NC(=O)CN)C(=O)N[C@@H](Cc1ccccc1)C(=O)N[C@@H](CCCNC(=N)N)C(=O)N[C@@H](CO)C(=O)N2` [compound 377] (H-GFCFRSCVRRNGVRVCYRRCN-OH; disulfide 3-20, 7-16 (inferred); N-terminus and C-terminus assumed): 0.35.
For the compound `CC(C)[C@@H]1NC(=O)[C@@H]2CSSC[C@H](NC(=O)[C@H](C)NC(=O)[C@H](CCCNC(=N)N)NC(=O)[C@H](CCCCN)NC(=O)CNC(=O)[C@H](CC(N)=O)NC(=O)[C@H](CCCNC(=N)N)NC(=O)[C@H](Cc3ccc(O)cc3)NC1=O)C(=O)N[C@@H](Cc1ccc(O)cc1)C(=O)N[C@@H](CCCNC(=N)N)C(=O)N[C@@H](CCCNC(=N)N)C(=O)N[C@H](C(=O)N[C@@H](CC(N)=O)C(=O)O)CSSC[C@H](NC(=O)[C@H](Cc1ccccc1)NC(=O)CN)C(=O)NCC(=O)N[C@@H](CCCNC(=N)N)C(=O)N[C@@H](C(C)C)C(=O)N2` [compound 386] (H-GFCGRVCVYRNGKRACYRRCN-OH; disulfide 3-20, 7-16 (inferred); N-terminus and C-terminus assumed), the fraction unbound was 0.19.
Next, `CC(C)[C@@H]1NC(=O)CNC(=O)[C@H](CC(N)=O)NC(=O)[C@H](CCCNC(=N)N)NC(=O)[C@H](CCCNC(=N)N)NC(=O)[C@H](C)NC(=O)[C@@H]2CSSC[C@H](NC(=O)[C@H](C(C)C)NC(=O)[C@H](CCCNC(=N)N)NC1=O)C(=O)N[C@@H](Cc1ccc(O)cc1)C(=O)N[C@@H](CCCNC(=N)N)C(=O)N[C@@H](CCCNC(=N)N)C(=O)N[C@H](C(=O)N[C@@H](CC(N)=O)C(=O)O)CSSC[C@H](NC(=O)[C@H](Cc1ccccc1)NC(=O)CN)C(=O)N[C@@H](Cc1c[nH]c3ccccc13)C(=O)N[C@@H](CC(N)=O)C(=O)N[C@@H](C)C(=O)N2` [compound 407] (H-GFCWNACARRNGVRVCYRRCN-OH; disulfide 3-20, 7-16 (inferred); N-terminus and C-terminus assumed): 0.12.
The result for `CC(C)[C@@H]1NC(=O)[C@H](CCCNC(=N)N)NC(=O)[C@H](Cc2c[nH]c3ccccc23)NC(=O)[C@@H](NC(=O)[C@H](Cc2ccccc2)NC(=O)CN)CSSC[C@@H](C(=O)N[C@@H](CC(N)=O)C(=O)O)NC(=O)[C@H](CCCNC(=N)N)NC(=O)[C@H](CCCNC(=N)N)NC(=O)[C@H](Cc2ccc(O)cc2)NC(=O)[C@@H]2CSSC[C@H](NC1=O)C(=O)N[C@@H](Cc1c[nH]cn1)C(=O)N[C@@H](Cc1ccc(O)cc1)C(=O)N[C@@H](CCCNC(=N)N)C(=O)N[C@@H](CC(N)=O)C(=O)N[C@@H](CO)C(=O)N[C@@H](C(C)C)C(=O)N[C@@H](CCCNC(=N)N)C(=O)N[C@@H](C(C)C)C(=O)N2` [compound 327] (H-GFCWRVCHYRNSVRVCYRRCN-OH; disulfide 3-20, 7-16 (inferred); N-terminus and C-terminus assumed) reads 0.02.
The result for `CC(C)[C@@H]1NC(=O)[C@@H]2CSSC[C@H](NC(=O)[C@H](CCCCN)NC(=O)[C@H](CCCNC(=N)N)NC(=O)[C@H](C)NC(=O)CNC(=O)[C@H](CC(N)=O)NC(=O)[C@H](CCCNC(=N)N)NC(=O)[C@H](CCCCN)NC1=O)C(=O)N[C@@H](Cc1c[nH]cn1)C(=O)N[C@@H](CCCNC(=N)N)C(=O)N[C@@H](CCCNC(=N)N)C(=O)N[C@H](C(=O)N[C@@H](CC(N)=O)C(=O)O)CSSC[C@H](NC(=O)[C@H](Cc1ccccc1)NC(=O)CN)C(=O)N[C@@H](Cc1c[nH]c3ccccc13)C(=O)N[C@@H](Cc1ccc(O)cc1)C(=O)N[C@@H](C(C)C)C(=O)N2` [compound 454] (H-GFCWYVCVKRNGARKCHRRCN-OH; disulfide 3-20, 7-16 (inferred); N-terminus and C-terminus assumed) reads 0.1.
With `CC[C@H](C)[C@@H]1NC(=O)[C@H](CC(N)=O)NC(=O)[C@H](Cc2c[nH]c3ccccc23)NC(=O)[C@@H](NC(=O)[C@H](Cc2ccccc2)NC(=O)CN)CSSC[C@@H](C(=O)N[C@@H](CC(N)=O)C(=O)O)NC(=O)[C@H](CCCNC(=N)N)NC(=O)[C@H](CCCNC(=N)N)NC(=O)[C@H](Cc2c[nH]cn2)NC(=O)[C@@H]2CSSC[C@H](NC1=O)C(=O)N[C@@H](C(C)C)C(=O)N[C@@H](Cc1ccc(O)cc1)C(=O)N[C@@H](CCCNC(=N)N)C(=O)N[C@@H](CC(N)=O)C(=O)NCC(=O)N[C@@H](C(C)C)C(=O)N[C@@H](CCCNC(=N)N)C(=O)N[C@@H](C(C)C)C(=O)N2` [compound 262] (H-GFCWNICVYRNGVRVCHRRCN-OH; disulfide 3-20, 7-16 (inferred); N-terminus and C-terminus assumed), the fraction unbound was 0.12.
Next, `CC(C)[C@@H]1NC(=O)CNC(=O)[C@H](CC(N)=O)NC(=O)[C@H](CCCNC(=N)N)NC(=O)[C@H](Cc2ccc(O)cc2)NC(=O)[C@H](C(C)C)NC(=O)[C@@H]2CSSC[C@H](NC(=O)[C@H](CO)NC(=O)[C@H](CCCNC(=N)N)NC1=O)C(=O)N[C@@H](Cc1c[nH]cn1)C(=O)N[C@@H](CCCNC(=N)N)C(=O)N[C@@H](CCCNC(=N)N)C(=O)N[C@H](C(=O)N[C@@H](CC(N)=O)C(=O)O)CSSC[C@H](NC(=O)[C@H](Cc1ccccc1)NC(=O)CN)C(=O)N[C@@H](Cc1c[nH]c3ccccc13)C(=O)N[C@@H](CCCNC(=N)N)C(=O)N[C@@H](C(C)C)C(=O)N2` [compound 316] (H-GFCWRVCVYRNGVRSCHRRCN-OH; disulfide 3-20, 7-16 (inferred); N-terminus and C-terminus assumed): 0.1; `CC(C)[C@@H]1NC(=O)CNC(=O)[C@H](CC(N)=O)NC(=O)[C@H](CCCNC(=N)N)NC(=O)[C@H](Cc2ccc(O)cc2)NC(=O)[C@H](C(C)C)NC(=O)[C@@H]2CSSC[C@H](NC(=O)[C@H](CC(N)=O)NC(=O)[C@H](CCCNC(=N)N)NC1=O)C(=O)N[C@@H](Cc1c[nH]cn1)C(=O)N[C@@H](CCCNC(=N)N)C(=O)N[C@@H](CCCNC(=N)N)C(=O)N[C@H](C(=O)N[C@@H](CC(N)=O)C(=O)O)CSSC[C@H](NC(=O)[C@H](Cc1ccccc1)NC(=O)CN)C(=O)N[C@@H](Cc1c[nH]c3ccccc13)C(=O)N[C@@H](CC(N)=O)C(=O)N[C@@H](C(C)C)C(=O)N2` [compound 251] (H-GFCWNVCVYRNGVRNCHRRCN-OH; disulfide 3-20, 7-16 (inferred); N-terminus and C-terminus assumed): 0.29; `CC(C)[C@@H]1NC(=O)CNC(=O)[C@H](CC(N)=O)NC(=O)[C@H](CCCNC(=N)N)NC(=O)[C@H](Cc2ccc(O)cc2)NC(=O)[C@H](C(C)C)NC(=O)[C@@H]2CSSC[C@H](NC(=O)[C@H](C(C)C)NC(=O)[C@H](CCCNC(=N)N)NC1=O)C(=O)N[C@@H](Cc1ccc(O)cc1)C(=O)N[C@@H](CCCNC(=N)N)C(=O)N[C@@H](CCCNC(=N)N)C(=O)N[C@H](C(=O)N[C@@H](CC(N)=O)C(=O)O)CSSC[C@H](NC(=O)[C@H](Cc1ccccc1)NC(=O)CN)C(=O)N[C@@H](Cc1c[nH]c3ccccc13)C(=O)N[C@@H](Cc1ccc(O)cc1)C(=O)NCC(=O)N2` [compound 15] (H-GFCWYGCVYRNGVRVCYRRCN-OH; disulfide 3-20, 7-16 (inferred); N-terminus and C-terminus assumed): 0.04.
`CC(C)[C@@H]1NC(=O)CNC(=O)[C@H](CC(N)=O)NC(=O)[C@H](CCCNC(=N)N)NC(=O)[C@H](Cc2ccc(O)cc2)NC(=O)[C@H](C(C)C)NC(=O)[C@@H]2CSSC[C@H](NC(=O)[C@H](C(C)C)NC(=O)[C@H](CCCNC(=N)N)NC1=O)C(=O)N[C@@H](Cc1ccc(O)cc1)C(=O)N[C@@H](CCCNC(=N)N)C(=O)N[C@@H](CCCNC(=N)N)C(=O)N[C@H](C(=O)N[C@@H](CC(N)=O)C(=O)O)CSSC[C@H](NC(=O)[C@H](C)NC(=O)CN)C(=O)N[C@@H](Cc1c[nH]c3ccccc13)C(=O)N[C@@H](Cc1ccc(O)cc1)C(=O)N[C@@H](C(C)C)C(=O)N2` [compound 3] (H-GACWYVCVYRNGVRVCYRRCN-OH; disulfide 3-20, 7-16 (inferred); N-terminus and C-terminus assumed) gave a free fraction (fraction unbound) of 0.14.
`CC(C)[C@@H]1NC(=O)CNC(=O)[C@H](CC(N)=O)NC(=O)[C@H](CCCNC(=N)N)NC(=O)[C@H](Cc2ccc(O)cc2)NC(=O)[C@H](C(C)C)NC(=O)[C@@H]2CSSC[C@H](NC(=O)[C@H](C(C)C)NC(=O)[C@H](CCCNC(=N)N)NC1=O)C(=O)N[C@@H](Cc1ccc(O)cc1)C(=O)N[C@@H](CCCNC(=N)N)C(=O)N[C@@H](CCCNC(=N)N)C(=O)N[C@H](C(=O)N[C@@H](CC(N)=O)C(=O)O)CSSC[C@H](NC(=O)[C@H](Cc1ccccc1)NC(=O)CN)C(=O)N[C@@H](Cc1c[nH]c3ccccc13)C(=O)N[C@@H](CCCNC(=N)N)C(=O)N[C@@H](C)C(=O)N2` [compound 72] (H-GFCWRACVYRNGVRVCYRRCN-OH; disulfide 3-20, 7-16 (inferred); N-terminus and C-terminus assumed) gave a fraction unbound of 0.03.

For orientation: fraction unbound means free concentration divided by total concentration. A lower fraction unbound goes with extensive binding.

These data come from US20160158317A1, “Antimicrobial Peptide Variants and Polynucleotides Encoding Same” (Adenium Biotech A/S, priority 2010, published 2016).
